Measurements as given in paper PMC12767106, “In Situ Assembly of Transformable Monopeptide on Activated Neutrophils Attenuates NETs‐Induced Hepatocellular Carcinoma Metastasis by Disrupting NE Nuclear Translocation” (Advanced Science, 2025).

What was measured:
activated neutrophils = assay: Recognition of activated versus resting neutrophils, flow cytometry of PpIX; format: cell-based, mouse; details: 50 µM, 1 h, neutrophils activated with PMA 100 nM, n = 3
resting neutrophils = assay: CCK-8 cytotoxicity; format: cell-based, mouse; details: CCK-8, 24 h, different dosages
Method: The supernatant was discarded, and the red blood cells were lysed with RBC lysate. The neutrophils were then washed with PBS again, and the supernatant was discarded. The cells were resuspended in culture medium and used for further experiments. […]
10 minutes to remove unbound particles, and the supernatant was collected. […]
In vitro cytotoxicity assay
The CCK-8 assay was used to assess the cell viability of Hepa1-6/luc, resting neutrophils, and activated neutrophils. Following the seeding of 1*10^4 cells per well on a 96-well plate, the cells were subjected to different dosages of FTP-NPs and NFTP-NPs (medium: DMSO = 99:1 v/v). After 24 hours, the cells were incubated for two hours with 10 µL of CCK-8 solution. Finally, a microplate reader (Tecan Infinite M200, Switzerland) was used to measure cell viability based on the absorbance values.
Targeting the capability of NEBP
To evaluate the targeting capability of NE-binding peptide (NEBP), the harvested resting neutrophils and […]

[1] = tested on: subcutaneous Hepa1-6/luc tumors; assay: Immune profiling of tumors by flow cytometry, plasma cytokines by ELISA; format: in vivo, mouse; details: tumor-bearing mice
Method: (§1) Submitted to Advanced Science
(§2) Total RNA was extracted and purified using a miRNeasy Mini Kit (FOREGENE, China). Quantitative real-time polymerase chain reaction (qRT-PCR) was performed in triplicate in the ABI 7500 fast real-time PCR System (Applied Biosystems, USA). The mRNAs were normalized with 18s. The following primers were used for PCR detection: E-cadherin, N-cadherin, Vimentin, and α-catenin.
(§3) Western blot analysis was performed to evaluate the levels of relative proteins in Hepa1-6/luc cells and Neutrophils.38 To evaluate NETs release, the neutrophils were exposed to PMA, PMA+NFTP -NPs, and PMA+FTP-NPs for 12 h. Following treatment, the cells underwent three PBS washes for WB to measure the expression of CitH3 proteins (Cat. no. ab5103, Abcam, Cambridge, England , UK). Furthermore, to evaluate EMT of Hepa1-6/luc cells, the cells underwent three PBS washes for WB to measure the expression of E - cadherin (Abmart, China), N-cadherin (Abmart, China), Vimentin (Abmart, China) , and β-catenin (Abmart, […]
(§4) In vivo subcutaneously implanted tumor models
The C57BL/6J mice with subcutaneous Hepa1-6/luc xenografts (grew up to roughly 100 mm 3) were separated into four groups according to the different treatments to perform the in vivo tumor therapy. PBS, NFTP-NPs, FTP-NPs, and NEi (300 µM in PBS: DMSO = 95:5, 200 µL) were administered intravenously (i.v.) five times every two days to mice. aPD-1 (BE0146, Bio X Cell, USA) was injected intraperitoneally into each mouse at 200μg once every 4 days for 3 doses. Throughout the experiment, the tumor volumes and body weight were measured once every four days. The formula tumor volume=length*1/2 width2 was used to get the tumor volume; at the same time, IVIS (AniView SE, Guangzhou Biolight Biotechnology Co., Ltd) was used to calculate bioluminescence signals in vivo. After therapy (day 20), major organs and blood samples were taken for histological and biochemical investigation as part of a safety assessment. […]
TNF-α, were measured using commercially available ELISA kits to assess the immune activation induced by […]

[2] = tested on: Hepa1-6/luc HCC xenograft; assay: Subcutaneous Hepa1-6/luc tumor model, tumor growth; format: in vivo, mouse; details: C57BL/6J mice, 300 µM in 200 µL i.v. five times every two days; aPD-1 200 µg i.p. every 4 days, 3 doses; n = 5
Method: as §1, §2, §3, §4
The C57BL/6J mice with subcutaneous Hepa1-6/luc xenografts (grew up to roughly 100 mm 3) were separated into four groups according to the different treatments to perform the in vivo tumor therapy. […] Throughout the experiment, the tumor volumes and body weight were measured once every four days. […]

[3] = mouse, in vivo

Q: With PpIX-GFFVLK-EAIPMSIPPEVK [FTP-NPs] as the substance, how does the “PpIX fluorescence of activated neutrophils relative to resting neutrophils” value (activated neutrophils) read?
A: Its value is “about 2.8 times”.

Q: What about the survival rate (resting neutrophils) of the same substance?
A: The survival rate was “over 95%”.

Q: And the “plasma IL-6 level” value [1]?
A: Its value is “significantly higher”.

Q: What about the “plasma IL-10 level” value [1] of the same substance?
A: The value was “decreased”.

Q: And the “plasma TNF-α level” value [1]?
A: Its value is “significantly higher”.

Q: What about the “tumor growth / increase in tumor volume” value [2] of the same substance?
A: The value was “significant efficacy in suppressing tumor growth”.

Q: And the “toxicity in mice (liver function, platelets, creatinine, blood cell count)” value [3]?
A: The value was “nontoxic”.
